Results: ChEMBL document CHEMBL1201862, “PubChem BioAssay data set” (2004)
Calls of active or inactive are those of the source.

Assays:
[1] = biological target: DNA dC->dU-editing enzyme APOBEC-3A (Homo sapiens, UniProt P31941); assay: Dose Response confirmation of small molecule APOBEC3A DNA Deaminase Inhibitors via a fluorescence-based single-stranded DNA deaminase assay. [Related pubchem assays (depositor defined):AID493011, AID493024]; assay type: functional
[2] = biological target: DNA dC->dU-editing enzyme APOBEC-3G (Homo sapiens, UniProt Q9HC16); assay type: functional;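 note: Dose-response counterscreen measuring inhibition of APOBEC3G DNA deaminase activity, run while confirming APOBEC3A inhibitors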
[3] = cytotoxicity in HEK-293T cells, dose response, cytotoxicity control for TCR NF-kB inhibitor project, luminescence, T-cell screen hits (AID 489026); assay type: functional, cell-based;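 note: cells exposed to compound about 14 hours before the viability readout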
[4] = Shn3 3'UTR reporter inhibitors, dose response, cell-based, Clone20 osteoblasts, firefly luciferase, cherry-picked (AID 624132); assay type: functional;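 note: firefly luciferase luminescence from reporter carrying the Shn3 3'UTR in osteoblasts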
[5] = control 3'UTR Renilla luciferase suppression, dose response, counter-screen for Shn3 inhibitor project, cell-based, Clone20-Shn3RL, cherry-picked (AID 624133); assay type: functional
[6] = ZM109 Env clade C HIV-1 fusion inhibitors, dose response, HeLa effector, CEM target cells, luciferase, cherry-pick (AID 652058); assay type: functional, cell-based
[7] = inhibitors of clade B AD8 Env fusion, dose response, cell-based, cherry-pick (AID 652062); assay type: functional;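 note: luciferase signal from cell-cell fusion driven by HIV-1 clade B AD8 Env; potency is for inhibitors of fusion seen as a drop in luminescence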
[8] = biological target: T1, Short transient receptor potential channel 4 (Mus musculus, UniProt Q9QUQ5); assay: mouse TRPC4 channel activators, dose response, cell-based, HEK293 TRPC4/mu-opioid, Fluo-4 calcium (AID 434937); assay type: functional
T1 sequence (Q9QUQ5 whole entry): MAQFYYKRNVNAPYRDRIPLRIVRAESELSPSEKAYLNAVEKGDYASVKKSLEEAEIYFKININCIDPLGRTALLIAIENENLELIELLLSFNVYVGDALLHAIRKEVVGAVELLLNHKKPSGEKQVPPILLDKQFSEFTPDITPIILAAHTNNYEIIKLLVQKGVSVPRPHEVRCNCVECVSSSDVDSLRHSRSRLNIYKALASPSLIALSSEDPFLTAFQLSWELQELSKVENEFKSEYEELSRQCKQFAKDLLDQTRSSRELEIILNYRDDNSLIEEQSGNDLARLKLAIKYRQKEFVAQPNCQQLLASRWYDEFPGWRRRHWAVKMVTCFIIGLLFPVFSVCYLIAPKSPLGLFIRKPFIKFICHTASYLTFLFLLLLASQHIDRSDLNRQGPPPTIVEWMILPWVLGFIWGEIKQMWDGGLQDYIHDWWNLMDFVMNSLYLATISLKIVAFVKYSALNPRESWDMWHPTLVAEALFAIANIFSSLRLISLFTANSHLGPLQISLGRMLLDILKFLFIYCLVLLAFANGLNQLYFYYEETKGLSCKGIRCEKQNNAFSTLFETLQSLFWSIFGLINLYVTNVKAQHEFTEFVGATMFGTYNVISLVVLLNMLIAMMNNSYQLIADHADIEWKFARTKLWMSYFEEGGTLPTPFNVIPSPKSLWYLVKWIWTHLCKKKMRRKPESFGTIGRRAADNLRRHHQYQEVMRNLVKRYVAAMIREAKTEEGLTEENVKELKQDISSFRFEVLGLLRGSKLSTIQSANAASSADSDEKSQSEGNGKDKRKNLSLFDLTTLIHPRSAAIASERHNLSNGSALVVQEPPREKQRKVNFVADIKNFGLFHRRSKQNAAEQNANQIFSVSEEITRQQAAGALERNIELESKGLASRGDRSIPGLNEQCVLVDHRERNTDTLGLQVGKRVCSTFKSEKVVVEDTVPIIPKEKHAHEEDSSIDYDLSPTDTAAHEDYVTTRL

BJ [9] = assay: cytotoxicity toward BJ-TERT fibroblasts, dose response, cell-based, RAS-independent, luminescence (AID 1933); assay type: functional; settings: Homo sapiens
BJ [10] = assay: cells; assay type: functional, cell-based; settings: Homo sapiens
BJ [11] = assay: cytotoxicity toward BJ-TERT-LT-ST fibroblasts, dose response, cell-based, RAS-independent, luminescence (AID 1935); assay type: functional; settings: Homo sapiens;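 note: BJ fibroblasts immortalized with TERT plus LT and ST oncogenes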
[12] = cytotoxicity toward DRD oncogenic fibroblasts, dose response, cell-based, non-viral oncogenic, luminescence (AID 1934); assay type: functional; settings: Homo sapiens
Large T antigen = Large T antigen (Simian virus 40, UniProt P03070); assay type: functional, Betapolyomavirus macacae;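 note: Confirmatory-stage PubChem screen for compounds that inhibit SV40 T antigen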
[13] = biological target: Induced myeloid leukemia cell differentiation protein Mcl-1 (Homo sapiens, UniProt Q07820); assay type: functional
[14] = biological target: T2, Replicative DNA helicase DnaB (Mycobacterium tuberculosis, UniProt P9WMR3); assay: DnaB intein splicing inhibitors, dose response, biochemical, cell-free fluorescence (AID 449749); assay type: functional
T2 sequence (P9WMR3 whole entry): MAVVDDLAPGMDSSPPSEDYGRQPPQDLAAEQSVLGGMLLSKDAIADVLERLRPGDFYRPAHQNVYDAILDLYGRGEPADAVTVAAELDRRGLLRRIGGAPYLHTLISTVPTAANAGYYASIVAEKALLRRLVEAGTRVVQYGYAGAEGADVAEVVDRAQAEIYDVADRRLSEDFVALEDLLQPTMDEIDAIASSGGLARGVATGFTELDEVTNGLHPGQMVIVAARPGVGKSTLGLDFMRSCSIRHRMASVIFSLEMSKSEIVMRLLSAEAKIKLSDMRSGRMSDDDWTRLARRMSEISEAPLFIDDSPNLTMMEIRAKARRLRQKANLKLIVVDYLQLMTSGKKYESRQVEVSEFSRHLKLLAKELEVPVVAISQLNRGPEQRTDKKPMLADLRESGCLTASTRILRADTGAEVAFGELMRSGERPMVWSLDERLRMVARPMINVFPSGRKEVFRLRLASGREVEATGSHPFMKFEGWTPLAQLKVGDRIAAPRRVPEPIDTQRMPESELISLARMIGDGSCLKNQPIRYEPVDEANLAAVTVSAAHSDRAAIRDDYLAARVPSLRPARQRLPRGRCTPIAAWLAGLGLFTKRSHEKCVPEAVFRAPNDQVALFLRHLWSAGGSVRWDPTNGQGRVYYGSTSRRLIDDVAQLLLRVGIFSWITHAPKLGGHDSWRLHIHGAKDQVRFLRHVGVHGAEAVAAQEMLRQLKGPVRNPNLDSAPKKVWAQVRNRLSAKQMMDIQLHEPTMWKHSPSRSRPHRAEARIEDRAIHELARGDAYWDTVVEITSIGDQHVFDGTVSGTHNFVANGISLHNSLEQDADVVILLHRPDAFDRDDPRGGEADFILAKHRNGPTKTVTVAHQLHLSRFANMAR

Protein RecA = biological target: T3, Protein RecA (Mycobacterium tuberculosis, UniProt P9WHJ3); assay: Fluorescence Cell-Free Homogeneous Dose Retest to Identify Inhibitors of RecA-Intein Splicing Activity. [Related pubchem assays (depositor defined):AID2097, AID2223, AID489010, AID492950]; assay type: functional
T3 sequence (P9WHJ3 whole entry): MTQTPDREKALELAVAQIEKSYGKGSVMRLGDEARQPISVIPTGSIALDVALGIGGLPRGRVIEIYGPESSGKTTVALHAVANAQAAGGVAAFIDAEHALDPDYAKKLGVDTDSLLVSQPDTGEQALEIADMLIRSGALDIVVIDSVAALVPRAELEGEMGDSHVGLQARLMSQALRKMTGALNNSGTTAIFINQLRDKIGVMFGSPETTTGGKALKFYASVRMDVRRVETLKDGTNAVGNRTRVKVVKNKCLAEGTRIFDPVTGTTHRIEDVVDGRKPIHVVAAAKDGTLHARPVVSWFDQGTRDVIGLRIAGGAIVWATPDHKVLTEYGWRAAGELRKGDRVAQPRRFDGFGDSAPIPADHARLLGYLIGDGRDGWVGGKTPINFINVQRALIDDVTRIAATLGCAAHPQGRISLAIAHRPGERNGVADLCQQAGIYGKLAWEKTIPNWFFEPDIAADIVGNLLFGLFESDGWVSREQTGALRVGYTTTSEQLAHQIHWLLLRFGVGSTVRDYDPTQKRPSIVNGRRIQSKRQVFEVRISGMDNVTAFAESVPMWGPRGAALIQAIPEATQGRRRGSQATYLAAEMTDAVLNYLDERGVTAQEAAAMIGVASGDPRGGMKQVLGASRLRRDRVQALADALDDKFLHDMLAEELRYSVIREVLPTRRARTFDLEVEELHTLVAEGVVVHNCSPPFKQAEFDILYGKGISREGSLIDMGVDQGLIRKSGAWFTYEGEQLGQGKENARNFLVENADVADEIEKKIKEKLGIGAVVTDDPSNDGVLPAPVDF

[15] = biological target: T4, Small ubiquitin-related modifier 1 (Homo sapiens, UniProt P63165); assay: inhibitors of SUMO1 peptide binding, dose response, biochemical, fluorescence polarization, uHTS hits (AID 624382); assay type: functional; settings: read-out: IC50_Mean
[16] = biological target: T4, Small ubiquitin-related modifier 1; assay: inhibitors of SUMO1 partner interactions, dose response, biochemical, FRET (AID 624383); assay type: functional; settings: read-out: IC50_Mean
[17] = biological target: T5, Histone-lysine N-methyltransferase NSD2 (Homo sapiens, UniProt O96028); assay type: biochemical
T5 sequence (O96028 whole entry): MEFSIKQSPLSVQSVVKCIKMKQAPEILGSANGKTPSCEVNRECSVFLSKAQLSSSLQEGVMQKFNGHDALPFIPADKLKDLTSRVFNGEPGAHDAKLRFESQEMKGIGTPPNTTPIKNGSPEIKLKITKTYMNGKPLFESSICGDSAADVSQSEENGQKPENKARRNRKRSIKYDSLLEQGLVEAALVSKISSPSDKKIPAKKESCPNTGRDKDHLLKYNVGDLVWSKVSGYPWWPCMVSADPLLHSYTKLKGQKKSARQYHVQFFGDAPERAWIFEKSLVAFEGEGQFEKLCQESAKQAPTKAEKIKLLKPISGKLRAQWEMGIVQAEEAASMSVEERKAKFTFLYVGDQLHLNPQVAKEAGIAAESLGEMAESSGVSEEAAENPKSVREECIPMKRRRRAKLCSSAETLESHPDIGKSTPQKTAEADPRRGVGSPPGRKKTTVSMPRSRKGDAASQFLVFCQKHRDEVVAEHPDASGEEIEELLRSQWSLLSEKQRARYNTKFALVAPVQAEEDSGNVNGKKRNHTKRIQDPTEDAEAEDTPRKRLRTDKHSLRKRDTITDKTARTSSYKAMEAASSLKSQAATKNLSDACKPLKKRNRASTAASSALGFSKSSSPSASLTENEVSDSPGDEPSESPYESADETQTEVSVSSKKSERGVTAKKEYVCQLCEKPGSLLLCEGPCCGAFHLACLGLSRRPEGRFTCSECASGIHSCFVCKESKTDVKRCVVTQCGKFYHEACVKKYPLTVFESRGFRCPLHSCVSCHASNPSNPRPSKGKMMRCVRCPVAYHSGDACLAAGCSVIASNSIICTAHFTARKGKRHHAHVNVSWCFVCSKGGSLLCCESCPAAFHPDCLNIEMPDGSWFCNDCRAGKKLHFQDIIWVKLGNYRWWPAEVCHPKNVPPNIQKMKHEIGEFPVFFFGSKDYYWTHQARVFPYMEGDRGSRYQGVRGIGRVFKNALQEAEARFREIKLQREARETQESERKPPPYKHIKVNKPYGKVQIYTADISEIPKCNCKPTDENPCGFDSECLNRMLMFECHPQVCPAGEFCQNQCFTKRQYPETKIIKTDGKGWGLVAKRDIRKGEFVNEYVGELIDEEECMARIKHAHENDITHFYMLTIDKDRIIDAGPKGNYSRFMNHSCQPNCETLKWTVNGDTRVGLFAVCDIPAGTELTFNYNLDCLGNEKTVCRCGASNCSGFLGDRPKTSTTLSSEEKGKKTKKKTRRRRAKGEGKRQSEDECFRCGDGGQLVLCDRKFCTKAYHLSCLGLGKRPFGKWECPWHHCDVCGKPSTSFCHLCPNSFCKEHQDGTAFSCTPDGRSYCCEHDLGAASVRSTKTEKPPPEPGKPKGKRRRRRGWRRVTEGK

Chain of DNA dC->dU-editing enzyme APOBEC-3A (P31941 whole entry): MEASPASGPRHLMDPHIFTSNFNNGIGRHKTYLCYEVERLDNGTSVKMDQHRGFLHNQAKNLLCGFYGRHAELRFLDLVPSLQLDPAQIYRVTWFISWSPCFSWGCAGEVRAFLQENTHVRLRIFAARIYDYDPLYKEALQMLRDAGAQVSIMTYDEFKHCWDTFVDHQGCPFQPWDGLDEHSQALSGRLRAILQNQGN
Chain of DNA dC->dU-editing enzyme APOBEC-3G (Q9HC16 whole entry): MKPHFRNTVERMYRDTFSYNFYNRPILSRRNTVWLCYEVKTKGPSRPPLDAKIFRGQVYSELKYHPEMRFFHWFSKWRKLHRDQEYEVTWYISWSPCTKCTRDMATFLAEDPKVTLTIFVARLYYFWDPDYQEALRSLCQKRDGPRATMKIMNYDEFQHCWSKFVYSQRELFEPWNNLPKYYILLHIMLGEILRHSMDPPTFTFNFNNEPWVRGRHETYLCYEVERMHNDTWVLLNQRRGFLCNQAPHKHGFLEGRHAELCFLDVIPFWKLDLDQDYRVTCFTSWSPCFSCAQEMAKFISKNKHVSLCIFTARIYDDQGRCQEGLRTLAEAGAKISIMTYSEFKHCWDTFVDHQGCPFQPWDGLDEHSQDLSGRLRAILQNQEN
T4 sequence (P63165 whole entry): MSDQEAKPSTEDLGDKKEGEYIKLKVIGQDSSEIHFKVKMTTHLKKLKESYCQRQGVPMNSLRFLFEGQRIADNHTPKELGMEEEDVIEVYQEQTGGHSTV
Chain of Induced myeloid leukemia cell differentiation protein Mcl-1 (Q07820 whole entry): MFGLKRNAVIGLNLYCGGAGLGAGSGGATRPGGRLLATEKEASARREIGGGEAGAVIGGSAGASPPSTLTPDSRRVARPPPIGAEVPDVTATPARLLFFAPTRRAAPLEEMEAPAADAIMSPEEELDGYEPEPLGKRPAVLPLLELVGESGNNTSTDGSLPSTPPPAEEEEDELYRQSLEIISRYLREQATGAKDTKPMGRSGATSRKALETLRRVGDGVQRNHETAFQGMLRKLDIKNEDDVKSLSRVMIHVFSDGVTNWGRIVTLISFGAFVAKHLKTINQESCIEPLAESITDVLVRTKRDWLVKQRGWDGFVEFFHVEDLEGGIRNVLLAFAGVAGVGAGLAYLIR
Chain of Large T antigen (P03070 whole entry): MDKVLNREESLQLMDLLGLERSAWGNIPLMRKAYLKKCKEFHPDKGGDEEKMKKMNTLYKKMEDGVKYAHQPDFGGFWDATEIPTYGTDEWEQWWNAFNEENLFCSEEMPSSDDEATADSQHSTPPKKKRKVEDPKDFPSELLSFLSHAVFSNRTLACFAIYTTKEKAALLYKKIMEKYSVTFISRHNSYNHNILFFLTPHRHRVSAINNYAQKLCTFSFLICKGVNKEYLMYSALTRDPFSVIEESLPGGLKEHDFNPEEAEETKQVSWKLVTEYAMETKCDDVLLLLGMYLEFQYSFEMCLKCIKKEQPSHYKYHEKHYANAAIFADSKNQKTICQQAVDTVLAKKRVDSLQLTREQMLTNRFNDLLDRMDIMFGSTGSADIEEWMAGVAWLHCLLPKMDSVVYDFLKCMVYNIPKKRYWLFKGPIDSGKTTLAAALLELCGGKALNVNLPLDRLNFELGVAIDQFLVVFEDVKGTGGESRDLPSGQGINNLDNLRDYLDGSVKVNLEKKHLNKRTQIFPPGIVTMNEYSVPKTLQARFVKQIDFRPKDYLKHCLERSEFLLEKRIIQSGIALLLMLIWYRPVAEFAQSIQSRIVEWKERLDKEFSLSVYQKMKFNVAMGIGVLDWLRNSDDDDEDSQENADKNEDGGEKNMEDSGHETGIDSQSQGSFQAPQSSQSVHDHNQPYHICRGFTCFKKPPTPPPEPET

CCCc1nc2sc3c(SCC(=O)NCc4ccco4)ncnc3c2c2c1CCC2
IC50 [1]: 15.8 µM (active)
IC50 [2]: 25.3 µM (active)

O=C(Nc1ccc(S(=O)(=O)N2CCN(Cc3ccccc3)CC2)cc1)c1cnccn1
IC50 [3]: > 80 µM (inactive)
AC50 [4]: 1.65 µM (active)
AC50 [5]: 4.15 µM (active)
AC50 [6]: < 260 nM (active)
AC50 [7]: 4.9 µM (active)

O=C(O)Cc1ccc(S(=O)(=O)N2CCCC2)s1
IC50 [1]: 17.4 µM (active)
IC50 [2]: 66.5 µM (active)

COc1ccc2c(/C=C/c3cc[n+](C)cc3)c[nH]c2c1
IC50 [1]: 6.12 µM (active)
IC50 [2]: 6.31 µM (active)

COc1cc(C)c(NC(=O)C2CCN(S(=O)(=O)c3cccs3)CC2)cc1OC
IC50 [1]: 12 µM (active)
IC50 [2]: 13.9 µM (active)

CCOC(=O)C1(CCOc2ccccc2)CCN(Cc2ccc(OC)c(O)c2)CC1
EC50 [8]: 473 nM (active)

CCc1cc2c(s1)N1Cc3ccccc3C(C(=O)c3cccc([N+](=O)[O-])c3)=C1NC2=O
EC50 (BJ [9]): > 150 µM (not active)
EC50 (BJ [10]): > 150 µM (not active)
EC50 (BJ [11]): > 150 µM (inconclusive)
EC50 [12]: > 150 µM (not active)
IC50 [3]: > 80 µM (inactive)

CN1C(=O)/C(=C/c2ccc(-c3ccccc3[N+](=O)[O-])o2)S/C1=N\c1ccc(Cl)c(C(=O)O)c1
IC50 (Large T antigen): 52.8 µM (active)
IC50 [13]: 14 µM (active)
AC50 [14]: 10.6 µM (active)
EC50 (Protein RecA): 5.51 µM (active)
IC50 [15]: > 66.6 µM (inactive)
IC50 [16]: 17.7 µM (active)
AC50 [17]: 4.58 µM (active)

CC(=Nc1cc(C)cc(C)c1)N(C)CCNS(=O)(=O)c1ccc(Cl)cc1
IC50 [1]: 2.67 µM (active)
IC50 [2]: 4.92 µM (active)
